One assay has as its system MDA-MB-231. Kind of assay: Cellular proliferation assay (Alamar blue), MDA-MB-231. The assay is classed as cell-based. To be noted: Homo sapiens, MDA-MB-231, MDA-MB-231 cells; 10% FCS; 72 h with compound; Alamar blue 24 h; read-out: pIC50 MDA/MB231 (converted). In a few lines:
(§1)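 Viable cell number is determined by Alamar blue conversion after cells are treated with compound for 72 hours, following 24 hours of growth without compound in 10% FCS. The effect is calculated against control cells.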

The target in a further assay is T1, PLK4 (h) (Homo sapiens, UniProt O00444).
T1 sequence (O00444 1-970): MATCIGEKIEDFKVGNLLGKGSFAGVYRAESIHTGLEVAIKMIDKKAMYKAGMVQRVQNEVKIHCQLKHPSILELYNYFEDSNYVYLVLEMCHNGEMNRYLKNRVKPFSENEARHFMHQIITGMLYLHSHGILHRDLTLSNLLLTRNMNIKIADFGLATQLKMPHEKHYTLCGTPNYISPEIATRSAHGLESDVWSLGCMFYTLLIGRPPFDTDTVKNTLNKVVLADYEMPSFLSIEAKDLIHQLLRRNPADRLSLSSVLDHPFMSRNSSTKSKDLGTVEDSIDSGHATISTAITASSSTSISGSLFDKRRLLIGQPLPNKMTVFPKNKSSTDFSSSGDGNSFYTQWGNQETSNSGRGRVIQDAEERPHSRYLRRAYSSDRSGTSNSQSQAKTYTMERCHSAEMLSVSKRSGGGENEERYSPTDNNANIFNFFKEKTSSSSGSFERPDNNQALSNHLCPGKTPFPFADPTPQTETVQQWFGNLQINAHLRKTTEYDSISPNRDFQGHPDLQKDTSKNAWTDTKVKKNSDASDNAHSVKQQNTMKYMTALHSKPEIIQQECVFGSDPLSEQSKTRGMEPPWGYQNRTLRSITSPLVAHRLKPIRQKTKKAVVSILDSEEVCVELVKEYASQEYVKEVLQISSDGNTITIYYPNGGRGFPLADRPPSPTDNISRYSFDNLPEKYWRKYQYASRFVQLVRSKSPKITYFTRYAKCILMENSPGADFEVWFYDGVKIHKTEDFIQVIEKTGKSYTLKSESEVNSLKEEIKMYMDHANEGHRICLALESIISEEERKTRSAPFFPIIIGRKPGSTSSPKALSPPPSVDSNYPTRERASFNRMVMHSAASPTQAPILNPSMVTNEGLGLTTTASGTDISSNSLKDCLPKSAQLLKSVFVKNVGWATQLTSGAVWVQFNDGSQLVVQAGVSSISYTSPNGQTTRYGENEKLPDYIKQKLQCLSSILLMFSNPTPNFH
Kind of assay: PLK-4 human kinase scintillation proximity assay (SPA). To be noted: 1 μM ATP, 60 minutes at r.t., read-out: PLK4 pIC50 (converted). The assay is classed as biochemical. In a few lines:
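Human PLK4 (19 μg/ml) reacted with 10 μM biotinylated peptide, 1 μM ATP plus 2 nM [γ-33P]ATP in HEPES pH 8.0 with MgCl2, NaCl, NaF and DTT for 60 min at r.t. After an EDTA stop, phosphorylated substrate was captured on streptavidin PVT SPA beads and scintillation imaged.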
For orientation: Scintillation proximity formats need no separation of bound from free tracer.

The subject of a further assay is U87-MG. Briefly: Cellular proliferation assay (Alamar blue), U87-MG. The class given is cell-based. As to conditions: Homo sapiens, U-87 MG; U87-MG cells; 10% FCS; 72 h with compound; Alamar blue 6 h; read-out: pIC50 U87MG (converted). How it is done: Cellular proliferation of these compounds was tested on a panel of different cell lines in the presence of 10% FCS serum (37° C. and 5% (v/v) CO2). In a first step these cells were seeded and incubated for 24 hours in the absence of compound. In the second step the cells were incubated for 72 hours with the compounds to be tested for 72 hours. The viable cell number was finally assessed in a standard Alamar blue cell viability assay.
The viable cell number was assessed by incubation for either 4 h (HCT-116, H1299) 6 h (U87-MG) or 24 h (A2780, PC3, MDA-MB-231) with Alamar blue (Resazurin 9 μg/ml, K-Ferrocyanide 90 μM, K-Ferricyanide 90 μM) and the converted fluorescent product was quantified on a fluorescent plate readed (544 nm/590 nm). Effect of the compounds is calculated as of on control cells.

In another assay the test system is PC3. Briefly: Cellular proliferation assay (Alamar blue), PC3. The assay is classed as cell-based. As to conditions: Homo sapiens, PC-3, PC-3 cells; 10% FCS; 72 h with compound; Alamar blue 24 h; read-out: pIC50 PC-3 (converted). In a few lines: (§2)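 Cells seeded 24 h, then exposed to compounds for 72 h in 10% FCS at 37° C, 5% CO2. Viability by Alamar blue (resazurin 9 μg/ml) fluorescence at 544/590 nm after 4 h (HCT-116), 6 h (U87-MG) or 24 h (A2780, PC3) dye incubation; effect expressed relative to control cells.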
In general terms: The colour change of resazurin is a common sign of viable cells or microbes.

A further assay deals with HCT-116. Kind of assay: Cellular proliferation assay (Alamar blue), HCT-116. To be noted: Homo sapiens; HCT-116 cells; 10% FCS; 72 h with compound; Alamar blue 4 h; read-out: pIC50 HCT-116 (converted). The class given is cell-based. In short, it runs like this:
as §2

The test system of another assay is A2780. Kind of assay: Cellular proliferation assay (Alamar blue), A2780. The assay is classed as cell-based. To be noted: Homo sapiens, A2780, A2780 cells; 10% FCS; 72 h with compound; Alamar blue 24 h; read-out: pIC50 A2780 (converted). In a few lines:
as §2

For the next assay, the system named is H1299. Briefly: Cellular proliferation assay (Alamar blue), H1299. The class given is cell-based. To be noted: Homo sapiens, NCI-H1299, H1299 cells; 10% FCS; 72 h with compound; Alamar blue 4 h; read-out: pIC50 H1299 (converted). In short, it runs like this: as §1

In the case of `COc1cc2cc(c1OC)CN(C(C)C)CC(=O)N(C)CCCc1c[nH]c3ncnc(c13)N2` [Compound 123], the IC50 in the assay on MDA-MB-231, at PLK4 (h), in the assay with U87-MG, in the assay with PC3, in the assay with HCT-116 and in the assay on A2780 was greater than 10 µM throughout. The IC50 in the assay on H1299 was greater than 10 µM.

In the case of `CN1CCCN(C)C(=O)COc2cc(ccc2OCC(=O)NC2CCCCC2)Nc2ncnc3[nH]cc(c23)C1` [Compound 118], the IC50 is 6.31 µM with MDA-MB-231; 0.0251 µM at PLK4 (h); 3.16 µM in the assay with U87-MG; 6.31 µM in the assay on PC3; 0.631 µM in the assay on HCT-116; 0.398 µM with A2780. Further, in the assay on H1299, the IC50 is 1.58 µM.

Turning to `CN1CCN(C)C(=O)CCCOc2cc(ccc2N2CCOCC2)Nc2ncnc3[nH]cc(c23)C1` [Compound 40], the IC50 in the assay on MDA-MB-231 is greater than 10 µM; at PLK4 (h) it was 1.26 µM; in the assay on U87-MG, greater than 10 µM; with PC3, greater than 10 µM; in the assay with HCT-116, greater than 10 µM; in the assay with A2780, greater than 10 µM. The IC50 in the assay on H1299 is greater than 10 µM.

`CCOc1ccc2cc1OCC(=O)N(C)CCCN(C)Cc1c[nH]c3ncnc(c13)N2` [Compound 63]: the IC50 in the assay on MDA-MB-231 is 3.16 µM; at PLK4 (h) it was 0.0794 µM; in the assay with U87-MG, 2 µM; in the assay on PC3 it was 2.51 µM; in the assay with HCT-116, 0.631 µM; in the assay with A2780 it was 0.501 µM. Besides, the IC50 in the assay on H1299 was 2 µM.

Turning to `COc1ccc2cc1OCC(=O)N(C)CCN(C)CCCc1c[nH]c3ncnc(c13)N2` [Compound 60], the IC50 in the assay with MDA-MB-231 is greater than 10 µM; at PLK4 (h), 1 µM; with U87-MG, greater than 10 µM; in the assay with PC3 it was greater than 10 µM; with HCT-116, greater than 10 µM; with A2780 it was greater than 10 µM. Moreover, in the assay with H1299, the IC50 was greater than 10 µM.

`CN1CCCN(C)C(=O)COc2cc(ccc2Br)Nc2ncnc3[nH]cc(c23)C1` [Compound 139]: the IC50 with MDA-MB-231 was 1.58 µM; on PLK4 (h) it was 0.0631 µM; in the assay on U87-MG, 1 µM; in the assay on PC3 it was 1 µM; in the assay on HCT-116 it was 0.501 µM; in the assay with A2780, 0.631 µM. Also, the IC50 with H1299 was 0.794 µM.

Turning to `COCCN(CCOc1ccc2cc1OCC(=O)N(C)CCCN(C)Cc1c[nH]c3ncnc(c13)N2)Cc1ccccc1` [Compound 141], the IC50 is 3.98 µM with MDA-MB-231; 0.0398 µM at PLK4 (h); 2.51 µM with U87-MG; 3.16 µM in the assay with PC3; 0.398 µM in the assay with HCT-116; 0.2 µM in the assay on A2780. The IC50 in the assay on H1299 was 1.26 µM.

Consider `CN1CCCN(C)C(=O)CCCCCOc2cc(ccc2Cl)Nc2ncnc3[nH]cc(c23)C1` [Compound 19], for which the IC50 in the assay on MDA-MB-231 is greater than 10 µM; at PLK4 (h) it was 0.316 µM; with U87-MG, greater than 10 µM; in the assay on PC3, greater than 10 µM; with HCT-116, greater than 10 µM; with A2780, greater than 10 µM. Also, the IC50 with H1299 is greater than 10 µM.

Consider `COc1ccc2cc1OCCCCCC(=O)N(C)CCCN(C)Cc1c[nH]c3ncnc(c13)N2` [Compound 18], for which the IC50 is greater than 10 µM in the assay on MDA-MB-231; 0.398 µM on PLK4 (h); greater than 10 µM in the assay with U87-MG; greater than 10 µM with PC3; greater than 10 µM with HCT-116; greater than 10 µM in the assay with A2780. The IC50 in the assay with H1299 is greater than 10 µM.

As to `COc1ccc2cc1OCC(=O)N1CCCC(CN(C)CCCc3c[nH]c4ncnc(c34)N2)C1` (centres unmarked) [Compound 29], the IC50 with MDA-MB-231, on PLK4 (h), in the assay with U87-MG, in the assay with PC3, in the assay with HCT-116 and with A2780 was greater than 10 µM each time. In the assay with H1299, the IC50 is greater than 10 µM.

For the compound `COc1ccc2cc1OCCCCC(=O)N(C)CCCN(C)Cc1c[nH]c3ncnc(c13)N2` [Compound 16], the IC50 in the assay with MDA-MB-231 was greater than 10 µM; at PLK4 (h), 0.126 µM; in the assay on U87-MG, greater than 10 µM; in the assay with PC3 it was greater than 10 µM; with HCT-116 it was greater than 10 µM; in the assay on A2780, greater than 10 µM. Moreover, the IC50 in the assay on H1299 is greater than 10 µM.

As to `CN1CCN(c2ccc3cc2OCC(=O)N(C)CCCN(C)Cc2c[nH]c4ncnc(c24)N3)CC1` [Compound 84], the IC50 in the assay on MDA-MB-231 was 3.98 µM; at PLK4 (h), 0.2 µM; in the assay with U87-MG, 1.26 µM; in the assay with PC3, 2.51 µM; in the assay on HCT-116, 1 µM; in the assay on A2780, 0.501 µM. Also, the IC50 with H1299 was 3.16 µM.

In the case of `COc1cc2cc(c1OC)CN(C)CC(=O)N(C)CCCc1c[nH]c3ncnc(c13)N2` [Compound 72], the IC50 in the assay on MDA-MB-231, at PLK4 (h), with U87-MG, in the assay with PC3, in the assay with HCT-116 and with A2780 was greater than 10 µM in each case. Moreover, the IC50 in the assay on H1299 was greater than 10 µM.

In the case of `CN1CCCN(C)C(=O)CCc2cccc(c2)Nc2ncnc3[nH]cc(c23)C1` [Compound 21], the IC50 was 5.01 µM in the assay with MDA-MB-231; 0.501 µM on PLK4 (h); 2 µM with U87-MG; 3.98 µM in the assay on PC3; 1.58 µM in the assay with HCT-116; 2 µM with A2780. In the assay with H1299, the IC50 was 2 µM.

`CN1CCCN(C)C(=O)COc2cc(ccc2OCC(=O)NC2CC2)Nc2ncnc3[nH]cc(c23)C1` [Compound 125]: the IC50 was greater than 10 µM in the assay with MDA-MB-231; 0.0251 µM at PLK4 (h); greater than 10 µM in the assay with U87-MG; greater than 10 µM with PC3; 5.01 µM in the assay on HCT-116; 1.26 µM in the assay with A2780. For the same compound, the IC50 with H1299 was 6.31 µM.

In the case of `COc1ccc2cc1OCC(=O)N1CCC[C@@H]1CN(C)CCCc1c[nH]c3ncnc(c13)N2` [Compound 38], the IC50 in the assay with MDA-MB-231, on PLK4 (h), in the assay with U87-MG, in the assay with PC3, in the assay with HCT-116 and with A2780 was greater than 10 µM throughout. In the assay with H1299, the IC50 was greater than 10 µM.

In the case of `CN1CCN(C)C(=O)CCc2cc(ccc2N2CCOCC2)Nc2ncnc3[nH]cc(c23)C1` [Compound 45], the IC50 was greater than 10 µM in the assay with MDA-MB-231; 3.16 µM at PLK4 (h); greater than 10 µM in the assay on U87-MG; greater than 10 µM in the assay on PC3; greater than 10 µM with HCT-116; greater than 10 µM with A2780. Also, the IC50 in the assay on H1299 is greater than 10 µM.
